Active and inactive are the calls of the source. No rule for the calls is given here.
biological target: Cell division control protein 42 homolog (Homo sapiens) (UniProt P60953); assay: inhibition of fluorescent GTP binding to Cdc42 wt – biochemical, bead-based multiplex flow cytometry, additional SAR set, SAR follow-up (AID 2022); settings: not given
Sequence (P60953 whole entry, looked up): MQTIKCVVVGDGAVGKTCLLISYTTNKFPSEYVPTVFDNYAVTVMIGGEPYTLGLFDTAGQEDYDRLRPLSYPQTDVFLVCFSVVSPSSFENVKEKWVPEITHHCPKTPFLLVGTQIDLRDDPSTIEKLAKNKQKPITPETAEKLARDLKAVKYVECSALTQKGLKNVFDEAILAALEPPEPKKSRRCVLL

SMILES	EC50
O=C1C(c2c(O)[nH]c3ccc(Br)cc23)=Nc2ccccc21	> 30 µM (inactive)
O=C1C(c2c(O)[nH]c3c(F)cccc23)=Nc2ccccc21	> 30 µM (inactive)
O=C1C(c2c(O)[nH]c3c(Br)cccc23)=Nc2ccccc21	> 30 µM (inactive)
O=Nc1c(-c2c(O)[nH]c3c(F)cccc23)[nH]c2ccccc12	inactive
O=Nc1c(-c2c(O)[nH]c3c(Br)cccc23)[nH]c2ccccc12	> 30 µM (inactive)
O=C1C(c2c(O)[nH]c3ccccc23)=Nc2ccccc21	> 30 µM (inactive)
O=Nc1c(-c2c(O)[nH]c3ccccc23)[nH]c2ccccc12	> 30 µM (inactive)
O=Nc1c(-c2c(O)[nH]c3c(Cl)cccc23)[nH]c2ccccc12	> 30 µM (inactive)
O=C1N=c2ccccc2=C1c1[nH]c(=O)[nH]c1O	> 30 µM (inactive)
O=C1N=c2ccccc2=C1c1[nH]c(=S)[nH]c1O	> 30 µM (inactive)
O=Nc1c(-c2c(O)[nH]c3ccc(Br)cc23)[nH]c2ccccc12	> 30 µM (inactive)
O=C1C(c2c(O)[nH]c3c(Cl)cccc23)=Nc2ccccc21	inactive

same assay, conditions: measured here: Ki for Cdc42 wildtype

SMILES	Ki [nM]
CC(C)Cc1ccc([C@H](C)C(=O)O)cc1	3510
O=Nc1c(-c2c(O)[nH]c3c(F)cccc23)[nH]c2ccccc12	5930
N#Cc1c(-c2ccc(Cl)cc2)c(C(=O)c2ccccc2)n(S(=O)(=O)c2ccc([N+](=O)[O-])cc2)c1N	1520
O=C1C(c2c(O)[nH]c3c(Cl)cccc23)=Nc2ccccc21	10
COc1ccc(S(=O)(=O)n2c(N)c(C#N)c(-c3cncc(Br)c3)c2C(=O)c2ccccc2)cc1	4810
COc1ccc(-c2c(C#N)c(N)n(S(C)(=O)=O)c2C(=O)c2ccccc2)cc1Br	2370

Reference: PubChem BioAssay AID2022 (NMMLSC, 2009)
